Test results from patent US20040254094A1, “Suppression of cyclin kinase activity for prevention and treatment of infections” (priority 2000, published 2004).
Read-outs that look alike come from different tables or passages of the source.

Tests used:
CDK1/cyclin B = conditions: cited from earlier work
Human Cytomegalovirus = assay: Infectious HCMV yield by plaque assay from infected density-arrested LU cells; assay type: cell-based, Human cytomegalovirus strain AD169; conditions: for inhibition at 3.3 µM / inhibition at 10 µM / inhibition at 33 µM / inhibition at 100 µM: Human betaherpesvirus 5, 96 h
[1] = system: HCMV-infected subconfluent LU cells; assay: Cell cycle distribution (DNA content, flow cytometry) following HCMV infection of subconfluent LU cells; conditions: for Percent cells in phase G0/G1 / Percent cells in phase G2/M / Percent cells in phase S: HCMV 5 PFU/cell + PAA 100 μg/ml, mean (SD)
Protocol: The DNA content of serum-arrested, HCMV-infected, subconfluent LU cells was analyzed by flow cytometry to determine to what extent productively infected cells initiate DNA synthesis.
Next, the DNA content of LU cells as a function of time after HCMV infection of subconfluent cells in the presence of PAA was analyzed.

HCMV [2] = assay: Viral late antigen pp28 expression by immunofluorescence in HCMV-infected LU cells; assay type: cell-based, Human cytomegalovirus; conditions: between 24 and 96 hr after infection in the presence of PAA
Protocol: Cells were cultured on sterile glass coverslips. The cells were washed three times in PBS and fixed in acetone:methanol (1:1) at −20° C. for 10 min. The permeabilized cells were incubated with primary antibody diluted in PBS for 1 hr at 37° C. in a humidified chamber. […] The excess conjugate was removed by washing the cells in PBS for 30 min. After drying, the cells were mounted in PBS/glycerol (1:1) and examined with the aid of a Zeiss Photomicroscope III using a 40/1.0 Neofluar lens. Images were photographed on slide film.

human lung fibroblasts = conditions: 100 μg/ml (0.75 mM); cited from earlier work
LU cells = conditions: within 24 hr after serum in the presence of PAA (about 68% without inhibitor)
Source text: The specificity of PAA was confirmed by measuring cellular DNA content after serum stimulation of quiescent LU cells in the presence and absence of PAA.

non-infected LU cells = assay: Hematoxylin and eosin staining of non-infected LU cells; assay type: cell-based, human; conditions: 15 μM for 96 hr
[3] = Tolerated dose in animals; assay type: in vivo; conditions: printed 'tolerated by rate'
Source text: The preferred dosage of CDK inhibitor in a parenteral administration may vary, depending upon the extent of the virus infection, the severity of the symptoms associated with the infection and patient age, weight and medical history. The number of administrations of the parenteral composition of the CDK inhibitor will also vary according to the response of the individual patient to the treatment. In one exemplary application, the dosage of CDK inhibitor may vary with the type of disease and the route of administration. Further studies with animal models of infection will completely define projected doses. […] Weaker CDK2 inhibitors will be needed at higher concentrations, and stronger, at lower.

HCMV [4] = assay: HCMV DNA abundance by slot blot hybridization in infected density-arrested LU cells; assay type: cell-based, Human cytomegalovirus strain AD169; conditions: 72 hr post-infection
HCMV-infected LU cells = assay: Hematoxylin and eosin staining of HCMV-infected LU cells
[5] = read-out: Percent inhibition of HCMV infectious yields, 3.3 μM, harvested 96 hrs
[6] = read-out: Percent inhibition of HCMV infectious yields, 10 μM (third line of each group), harvested 96 hrs
[7] = read-out: Percent inhibition of HCMV infectious yields, 10 μM, harvested 96 hrs
[8] = read-out: Percent inhibition of HCMV infectious yields, 33 μM, harvested 96 hrs
[9] = read-out: Percent inhibition of HCMV infectious yields, 100 μM, harvested 96 hrs
[10] = 3.3 μM, harvested 96 hrs, read-out: Percent inhibition of HCMV infectious yields
[11] = 10 μM (third line of each group), harvested 96 hrs, read-out: Percent inhibition of HCMV infectious yields
[12] = 10 μM, harvested 96 hrs, read-out: Percent inhibition of HCMV infectious yields
[13] = 33 μM, harvested 96 hrs, read-out: Percent inhibition of HCMV infectious yields
[14] = 100 μM, harvested 96 hrs, read-out: Percent inhibition of HCMV infectious yields
[15] = 10 μM (third line of each group), harvested 96 hrs

CN(C)c1ncnc2nc[nH]c12 [6-Dimethylaminopurine]
IC50 (CDK1/cyclin B): 120 µM

Cc1c2ccncc2c(C)c2c1[nH]c1ccc(O)cc12 [9-hydroxyellipticine]
IC50 (CDK1/cyclin B): 1 µM

O=C1Cc2c([nH]c3ccc([N+](=O)[O-])cc23)-c2ccccc2N1 [Alsterpaullone]
inhibition at 3.3 µM (Human Cytomegalovirus; [5]): 100% | inhibition at 10 µM (Human Cytomegalovirus; [6]): 100% | inhibition at 10 µM (Human Cytomegalovirus; [7]): 100% | inhibition at 33 µM (Human Cytomegalovirus; [8]): 100% | inhibition at 100 µM (Human Cytomegalovirus; [9]): 100%

OCCCNc1cc(-c2ccnc(Nc3cccc(Cl)c3)n2)ccn1 [CGP60474]
IC50 (CDK1/cyclin B): 0.02 µM

COc1ccc(CNc2nc(N(CCO)CCO)nc3c2ncn3C(C)C)cc1 [CVT-313]
IC50 (CDK1/cyclin B): 4.2 µM

CN1CC[C@H](c2c(O)cc(O)c3c(=O)cc(-c4ccccc4Cl)oc23)[C@H](O)C1 [Flavopiridol]
inhibition at 3.3 µM (Human Cytomegalovirus; [10]): 100% | inhibition at 10 µM (Human Cytomegalovirus; [11]): 100% | inhibition at 10 µM (Human Cytomegalovirus; [12]): 100% | inhibition at 33 µM (Human Cytomegalovirus; [13]): 100% | inhibition at 100 µM (Human Cytomegalovirus; [14]): 100%

CC(C)=CCNc1ncnc2nc[nH]c12 [Isopentenyladenine]
IC50 (CDK1/cyclin B): 55 µM

CC(C)[C@H](CO)Nc1nc(Nc2cc(N)cc(Cl)c2)c2ncn(C(C)C)c2n1 [NG97, aminopurvalanol]
inhibition at 3.3 µM (Human Cytomegalovirus; [10]): 99.9% | inhibition at 10 µM (Human Cytomegalovirus; [11]): 100% | inhibition at 10 µM (Human Cytomegalovirus; [12]): 51.3% | inhibition at 33 µM (Human Cytomegalovirus; [13]): 100% | inhibition at 100 µM (Human Cytomegalovirus; [14]): 100%

O=C(O)CP(=O)(O)O [PAA, phosphonoacetic acid]
Percent cells in phase G0/G1 ([1]; 0 hrs after treatment): 93.3 (1.2) % | Percent cells in phase G2/M ([1]; 0 hrs after treatment): 5.1 (1.0) % | Percent cells in phase S ([1]; 0 hrs after treatment): 1.6 (0.2) % | Percent cells in phase G0/G1 ([1]; 24 hrs): 97.2 (0.4) % | Percent cells in phase G2/M ([1]; 24 hrs): 1.9 (0.3) % | Percent cells in phase S ([1]; 24 hrs): 0.9 (0.1) % | Percent cells in phase G0/G1 ([1]; 48 hrs): 97.1 (0.8) % | Percent cells in phase G2/M ([1]; 48 hrs): 1.3 (0.4) % | Percent cells in phase S ([1]; 48 hrs): 1.5 (0.4) % | Percent cells in phase G0/G1 ([1]; 72 hrs): 97.2 (0.3) % | Percent cells in phase G2/M ([1]; 72 hrs): 0.9 (0.1) % | Percent cells in phase S ([1]; 72 hrs): 1.9 (0.3) % | DNA content of LU cells after HCMV infection in the presence of PAA ([1]; subconfluent cells): no detectable increase in DNA content | pp28 expression (HCMV [2]): could not be detected | viral DNA replication (human lung fibroblasts): blocks viral DNA replication | cells in S, G2, or M phase (LU cells): about 57%

CCCCc1c(-c2ccc(O)cc2)[nH]c2nccnc12 [RP107]
Percent inhibition of HCMV infectious yields (Human Cytomegalovirus; 3.3 μM, harvested 96 hrs): 96.67% | Percent inhibition of HCMV infectious yields (Human Cytomegalovirus; [15]): 99.98% | Percent inhibition of HCMV infectious yields (Human Cytomegalovirus; 10 μM, harvested 96 hrs): 74.67% | Percent inhibition of HCMV infectious yields (Human Cytomegalovirus; 33 μM, harvested 96 hrs): 99.9968% | Percent inhibition of HCMV infectious yields (Human Cytomegalovirus; 100 μM, harvested 96 hrs): 99.9984%

CC[C@H](CO)Nc1nc(NCc2ccccc2)c2ncn(C(C)C)c2n1 [Roscovitine]
morphological changes of non-infected cells (non-infected LU cells): no morphological changes | tolerated dose [3]: 3 µg/kg | HCMV DNA abundance reduced by (HCMV [4]; 1 μM): ~50% | viral DNA abundance reduced by (HCMV [4]; 10 μM): > 90% | morphology of HCMV-infected cells (HCMV-infected LU cells; 5 μM, 96 hr post-infection): rounded and appeared to be undergoing cell death | morphology of HCMV-infected cells (HCMV-infected LU cells; 15 μM, 96 hr after infection): clearly dying or dead | Infectious HCMV yields reduced by (Human Cytomegalovirus; 2.5 μM, 96 hr post-infection): > 90% | inhibition at 3.3 µM (Human Cytomegalovirus; [5]): 90.7% | inhibition at 10 µM (Human Cytomegalovirus; [6]): 96.5% | inhibition at 10 µM (Human Cytomegalovirus; [7]): 91.3% | inhibition at 33 µM (Human Cytomegalovirus; [8]): 100% | inhibition at 100 µM (Human Cytomegalovirus; [9]): > 100% | inhibition at 10 µM (Human Cytomegalovirus; read-out: inhibition of infectious HCMV yields, 10 μM, 96 hr post-infection): > 99.9%

CN[C@@H]1C[C@H]2O[C@@](C)([C@@H]1OC)n1c3ccccc3c3c4c(c5c6ccccc6n2c5c31)C(=O)NC4 [Staurosporine]
IC50 (CDK1/cyclin B): 0.004 µM

Cc1ccc(C(=O)Nc2ccc(S(=O)(=O)O)c3cc(S(=O)(=O)O)cc(S(=O)(=O)O)c23)cc1NC(=O)c1cccc(NC(=O)Nc2cccc(C(=O)Nc3cc(C(=O)Nc4ccc(S(=O)(=O)O)c5cc(S(=O)(=O)O)cc(S(=O)(=O)O)c45)ccc3C)c2)c1 [Suramin]
IC50 (CDK1/cyclin B): 4 µM

N#Cc1cn([C@@H]2O[C@H](CO)[C@@H](O)[C@H]2O)c2ncnc(N)c12 [Toyocamycin]
IC50 (CDK1/cyclin B): 0.88 µM

O=C1CCCO1 [γ-Butyrolactone]
IC50 (CDK1/cyclin B): 0.6 µM

Indirubin-3′-monoxime
IC50 (CDK1/cyclin B): 0.18 µM | Percent inhibition of HCMV infectious yields (Human Cytomegalovirus; 3.3 μM, harvested 96 hrs): 56.69% | Percent inhibition of HCMV infectious yields (Human Cytomegalovirus; [15]): 99.9988% | Percent inhibition of HCMV infectious yields (Human Cytomegalovirus; 10 μM, harvested 96 hrs): 26.67% | Percent inhibition of HCMV infectious yields (Human Cytomegalovirus; 33 μM, harvested 96 hrs): 99.9976% | Percent inhibition of HCMV infectious yields (Human Cytomegalovirus; 100 μM, harvested 96 hrs): 99.9992%

Purvalanol A&B
IC50 (CDK1/cyclin B): 0.004 µM
